The source of these data is the supplement of paper PMC10307832.

Holding throughout (test): relative viability (nuclei count vs DMSO), 5 days (fraction); higher = more cells survive
Compound in test [1]: NCC(=O)Nc1ccc(-n2nc(C(F)(F)F)cc2-c2ccc3c(ccc4ccccc43)c2)cc1 + O=C(c1cc(Cc2n[nH]c(=O)c3ccccc23)ccc1F)N1CCN(C(=O)C2CC2)CC1 [Olaparib] (partner 8 µM)
The procedure, abridged: (§1)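 Nuclei were stained with Hoechst during a one-step fixation (final 0.05% Triton X-100, 1% formaldehyde, 1 ug/ml Hoechst) carried out 5 days after dosing, then counted on 4× images. The cells, lung cancer lines in 1536-well plates, had been dosed by pin tool the day after seeding with one drug alone or a fixed anchor-drug dose plus five library-drug doses (not always all listed) in √10 steps. Relative viability is the nuclei count in treated wells divided by that in vehicle wells, and each value is the median of duplicate plates.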

Compound in test [2]: NCC(=O)Nc1ccc(-n2nc(C(F)(F)F)cc2-c2ccc3c(ccc4ccccc43)c2)cc1 + C[C@@H](Oc1cc(-c2cnn(C3CCNCC3)c2)cnc1N)c1c(Cl)ccc(F)c1Cl [Crizotinib] (partner 1 µM)
The procedure, abridged: as §1

Compound in the test “kb NB 142-70 + Dasatinib”: C1CSC2=C(C(=O)N1)SC3=C2C=C(C=C3)O [kb NB 142-70] + Cc1nc(Nc2ncc(C(=O)Nc3c(C)cccc3Cl)s2)cc(N2CCN(CCO)CC2)n1 [Dasatinib] (partner 0.075 µM)
The procedure, abridged: as §1

Compound in test [3]: C1CSC2=C(C(=O)N1)SC3=C2C=C(C=C3)O [kb NB 142-70] + CC(=O)Nc1cccc(-n2c(=O)n(C3CC3)c(=O)c3c(Nc4ccc(I)cc4F)n(C)c(=O)c(C)c32)c1 [Trametinib] (partner 0.02 µM)
The procedure, abridged: as §1

Compound in the test “kb NB 142-70 + Lapatinib”: C1CSC2=C(C(=O)N1)SC3=C2C=C(C=C3)O [kb NB 142-70] + CS(=O)(=O)CCNCc1ccc(-c2ccc3ncnc(Nc4ccc(OCc5cccc(F)c5)c(Cl)c4)c3c2)o1 [Lapatinib] (partner 2 µM)
The procedure, abridged:
as §1

Consider PC-3 [JPC-3], for which the relative viability was 1.19 in test [1] (first compound 0.02 µM); 1.2 in test [1] (first compound 0.06325 µM); 1.22 in test [1] (first compound 0.2 µM); 1.08 in test [1] (first compound 0.6325 µM); 1.18 in test [1] (first compound 2 µM); 1.01 in test [2] (first compound 0.02 µM). Further, the relative viability in test [2] (first compound 0.06325 µM) was determined as 1.03; in test [2] (first compound 0.2 µM), 0.996; in test [2] (first compound 0.6325 µM) it was 0.959; in test [2] (first compound 2 µM) it was 0.99; with kb NB 142-70 + Dasatinib (first compound 0.1 µM), 0.94; with kb NB 142-70 + Dasatinib (first compound 1 µM) it was 1.05. The relative viability turned out to be 1.02 with kb NB 142-70 + Dasatinib (first compound 3.162 µM); 0.685 in test [3] (first compound 0.1 µM); 0.726 in test [3] (first compound 1 µM); 0.643 in test [3] (first compound 3.162 µM); 0.452 with kb NB 142-70 + Lapatinib (first compound 0.1 µM); 0.481 with kb NB 142-70 + Lapatinib (first compound 1 µM). Besides, the relative viability in the test with kb NB 142-70 + Lapatinib (first compound 3.162 µM) is 0.433.
For the cell line PC-14, the relative viability in test [1] (first compound 0.02 µM) is 0.308; in test [1] (first compound 0.06325 µM), 0.45; in test [1] (first compound 0.2 µM), 0.317; in test [1] (first compound 0.6325 µM), 0.388; in test [1] (first compound 2 µM) it was 0.306; in test [2] (first compound 0.02 µM), 1.1. In addition, the relative viability in test [2] (first compound 0.06325 µM) was 0.905; in test [2] (first compound 0.2 µM), 1.04; in test [2] (first compound 0.6325 µM) it was 0.976; in test [2] (first compound 2 µM), 0.937; with kb NB 142-70 + Dasatinib (first compound 0.1 µM), 0.299; with kb NB 142-70 + Dasatinib (first compound 1 µM) it was 0.239. Moreover, the relative viability with kb NB 142-70 + Dasatinib (first compound 3.162 µM) is 0.224; in test [3] (first compound 0.1 µM), 0.808; in test [3] (first compound 1 µM), 0.769; in test [3] (first compound 3.162 µM), 0.799; with kb NB 142-70 + Lapatinib (first compound 0.1 µM), 0.362; with kb NB 142-70 + Lapatinib (first compound 1 µM), 0.304. For the same cell line, the relative viability with kb NB 142-70 + Lapatinib (first compound 3.162 µM) is 0.341.
On to RERF-LC-KJ, for which the relative viability in test [1] (first compound 0.02 µM) is 0.98; in test [1] (first compound 0.06325 µM), 0.97; in test [1] (first compound 0.2 µM) it was 1.01; in test [1] (first compound 0.6325 µM) it was 0.985; in test [1] (first compound 2 µM), 0.897; in test [2] (first compound 0.02 µM), 0.867. The relative viability in test [2] (first compound 0.06325 µM) stood at 0.845; in test [2] (first compound 0.2 µM) it was 0.847; in test [2] (first compound 0.6325 µM) it was 0.791; in test [2] (first compound 2 µM) it was 0.809; in the test with kb NB 142-70 + Dasatinib (first compound 0.1 µM) it was 0.834; with kb NB 142-70 + Dasatinib (first compound 1 µM), 0.872. The relative viability in the test with kb NB 142-70 + Dasatinib (first compound 3.162 µM) came to 0.752; in test [3] (first compound 0.1 µM), 0.914; in test [3] (first compound 1 µM), 0.928; in test [3] (first compound 3.162 µM) it was 0.805; with kb NB 142-70 + Lapatinib (first compound 0.1 µM) it was 0.956; in the test with kb NB 142-70 + Lapatinib (first compound 1 µM), 0.88. In the test with kb NB 142-70 + Lapatinib (first compound 3.162 µM), the relative viability was 0.942.
Turning to SK-LU-1, the relative viability in test [1] (first compound 0.02 µM) was found to be 0.477; in test [1] (first compound 0.06325 µM), 0.463; in test [1] (first compound 0.2 µM), 0.589; in test [1] (first compound 0.6325 µM), 0.479; in test [1] (first compound 2 µM) it was 0.556; in test [2] (first compound 0.02 µM), 0.854. In addition, the relative viability in test [2] (first compound 0.06325 µM) came to 0.949; in test [2] (first compound 0.2 µM), 1.11; in test [2] (first compound 0.6325 µM), 0.831; in test [2] (first compound 2 µM) it was 1.03; in the test with kb NB 142-70 + Dasatinib (first compound 0.1 µM), 0.176; in the test with kb NB 142-70 + Dasatinib (first compound 1 µM) it was 0.163. Also, the relative viability with kb NB 142-70 + Dasatinib (first compound 3.162 µM) amounted to 0.119; in test [3] (first compound 0.1 µM), 0.486; in test [3] (first compound 1 µM), 0.548; in test [3] (first compound 3.162 µM), 0.27; with kb NB 142-70 + Lapatinib (first compound 0.1 µM) it was 0.865; with kb NB 142-70 + Lapatinib (first compound 1 µM), 0.802. In the test with kb NB 142-70 + Lapatinib (first compound 3.162 µM), the relative viability was found to be 0.527.
Take SK-MES-1: the relative viability turned out to be 0.773 in test [1] (first compound 0.02 µM); 0.727 in test [1] (first compound 0.06325 µM); 0.84 in test [1] (first compound 0.2 µM); 0.775 in test [1] (first compound 0.6325 µM); 0.706 in test [1] (first compound 2 µM); 1.04 in test [2] (first compound 0.02 µM). For the same cell line, the relative viability was 0.994 in test [2] (first compound 0.06325 µM); 1.04 in test [2] (first compound 0.2 µM); 0.979 in test [2] (first compound 0.6325 µM); 1.03 in test [2] (first compound 2 µM); 0.422 with kb NB 142-70 + Dasatinib (first compound 0.1 µM); 0.49 with kb NB 142-70 + Dasatinib (first compound 1 µM). The relative viability with kb NB 142-70 + Dasatinib (first compound 3.162 µM) was determined as 0.337; in test [3] (first compound 0.1 µM) it was 0.547; in test [3] (first compound 1 µM), 0.631; in test [3] (first compound 3.162 µM), 0.714; in the test with kb NB 142-70 + Lapatinib (first compound 0.1 µM), 0.448; with kb NB 142-70 + Lapatinib (first compound 1 µM), 0.503. Also, the relative viability in the test with kb NB 142-70 + Lapatinib (first compound 3.162 µM) was 0.541.
As for SW 1573, the relative viability in test [1] (first compound 0.02 µM) came to 0.554; in test [1] (first compound 0.06325 µM) it was 0.506; in test [1] (first compound 0.2 µM), 0.531; in test [1] (first compound 0.6325 µM), 0.479; in test [1] (first compound 2 µM), 0.404; in test [2] (first compound 0.02 µM), 0.756. The relative viability in test [2] (first compound 0.06325 µM) was determined as 0.756; in test [2] (first compound 0.2 µM), 0.837; in test [2] (first compound 0.6325 µM), 0.848; in test [2] (first compound 2 µM), 0.911; with kb NB 142-70 + Dasatinib (first compound 0.1 µM), 0.491; with kb NB 142-70 + Dasatinib (first compound 1 µM) it was 0.458. For the same cell line, the relative viability in the test with kb NB 142-70 + Dasatinib (first compound 3.162 µM) worked out at 0.188; in test [3] (first compound 0.1 µM) it was 0.541; in test [3] (first compound 1 µM) it was 0.475; in test [3] (first compound 3.162 µM), 0.418; with kb NB 142-70 + Lapatinib (first compound 0.1 µM), 1.03; with kb NB 142-70 + Lapatinib (first compound 1 µM), 0.877. Moreover, the relative viability in the test with kb NB 142-70 + Lapatinib (first compound 3.162 µM) stood at 0.988.
As to UMC-11, the relative viability in test [1] (first compound 0.02 µM) turned out to be 0.307; in test [1] (first compound 0.06325 µM), 0.355; in test [1] (first compound 0.2 µM) it was 0.537; in test [1] (first compound 0.6325 µM), 0.354; in test [1] (first compound 2 µM), 0.377; in test [2] (first compound 0.02 µM), 0.728. Besides, the relative viability in test [2] (first compound 0.06325 µM) stood at 0.638; in test [2] (first compound 0.2 µM), 0.622; in test [2] (first compound 0.6325 µM), 0.604; in test [2] (first compound 2 µM) it was 0.567; with kb NB 142-70 + Dasatinib (first compound 0.1 µM), 0.438; with kb NB 142-70 + Dasatinib (first compound 1 µM) it was 0.464. Besides, the relative viability is 0.318 with kb NB 142-70 + Dasatinib (first compound 3.162 µM); 0.668 in test [3] (first compound 0.1 µM); 0.735 in test [3] (first compound 1 µM); 0.464 in test [3] (first compound 3.162 µM); 0.964 with kb NB 142-70 + Lapatinib (first compound 0.1 µM); 0.836 in the test with kb NB 142-70 + Lapatinib (first compound 1 µM). The relative viability in the test with kb NB 142-70 + Lapatinib (first compound 3.162 µM) amounted to 0.535.
